Patent EP0353668A2, “Process for the preparation of N,N-bis(alkoxyalkyl) diamides of pyridine-2,4-dicarboxylic acid” (HOECHST AKTIENGESELLSCHAFT, priority 1988, dated 1990)

Assay: in vivo
Set-up: species or system Wistarratten
Procedure: Es wurde festgestellt, daß die Verbindungen der Formel I außergewöhnlich gute enterale Resorbierbarkeiten aufweisen. Die Resorbierbarkeit wurde an Wistarratten untersucht, denen N,N′-Bis-(2-methoxy ethyl)pyridin-2,4-dicarbonsäureamid intragastral verabreicht wurde. Der Serumspiegel sank in den ersten Stunden nach Verabreichung der Substanz ab und ereichte nach ca. 5 Stunden ein nur noch leicht abfallendes Platteau.
Weibliche Wistarratten von ca. 150 g Körpergewicht erhalten 50 mg/kg N,N′-Bis(2-methoxyethyl)pyridin-2,4-dicarbonsäurediamid mittels Schlundsonde intragastral verabreicht. Es werden nach 0; 0,25; 0,5; 1; 3; 4; 5; 6; 8 und 14 Stunden jeweils 4 Ratten narkotisiert und über die Vena Cava entblutet. Das Blut wird sofort zentrifugiert und N,N′-Bis(2-methoxyethyl)pyridin-2,4-dicarbonsäurediamid mit Ether aus dem Serum extrahiert. Nach Verdampfen des Ethers wird der Rückstand in […] Fliessmittel aufgenommen. Das Fliessmittel besteht aus 0,05 M Phosphorsäure und Acetonitril (4:1). Von dieser Probe werden 50 µl in eine HPLC-Säule injiziert. Die Detektion erfolgt bei UV 200 nm und einer Retentionszeit von 2,2 min. Die Ergebnisse sind in der Tabelle 1 und der Figur 1 dokumentiert. Tabelle 1

- Zeit bis der Serumspiegel ein nur noch leicht abfallendes Platteau erreichte: ca. 5 Stunden
- enterale Resorbierbarkeit: gute Resorbierbarkeit
- concentration at 0.25 h (rat, po, 50 mg/kg): 38700 ng/mL
- concentration at 0.5 h (rat, po, 50 mg/kg): 32400 ng/mL
- concentration at 1 h (rat, po, 50 mg/kg): 15600 ng/mL
- concentration at 3 h (rat, po, 50 mg/kg): 700 ng/mL
- concentration at 4 h (rat, po, 50 mg/kg): 3300 ng/mL
- concentration at 5 h (rat, po, 50 mg/kg): 500 ng/mL
- concentration at 6 h (rat, po, 50 mg/kg): 600 ng/mL
- concentration at 8 h (rat, po, 50 mg/kg): 500 ng/mL
- concentration at 14 h (rat, po, 50 mg/kg): 300 ng/mL
Structure (SMILES): COCCNC(=O)c1ccnc(C(=O)NCCOC)c1 [N,N′-Bis(2-methoxyethyl)pyridin-2,4-dicarbonsäurediamid]
